Experimental data from PubChem BioAssay (NCI).
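All cell lines were grown in 96-well plates and treated with compound for 48 hours. At the TGI there is no net growth.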

How the values were obtained:
Assay in all cases: NCI-60 cell line screen, 48 h
[1] = system: OVCAR-8 ovarian
[2] = system: HCT-116 colon
[3] = system: SNB-75 CNS
[4] = system: KM12 colon
[5] = system: SF-539 CNS
[6] = system: CCRF-CEM leukemia
[7] = system: SK-MEL-5 melanoma
[8] = system: HOP-92 NSCLC
[9] = system: SW-620 colon
[10] = system: UACC-257 melanoma
[11] = system: SK-MEL-28 melanoma
[12] = system: K-562 leukemia
[13] = system: NCI-H23 lung
[14] = system: A549 NSCLC
[15] = system: M19-MEL melanoma
[16] = system: TK-10 renal
[17] = system: KM20L2 colon
[18] = system: M14 melanoma
[19] = system: SF-268 CNS
[20] = system: HT29 colon
[21] = system: U251 CNS
[22] = system: SK-OV-3 ovarian
[23] = system: UACC-62 melanoma
[24] = system: DLD-1 colon
[25] = system: UO-31 renal
[26] = system: RPMI-8226 leukemia
[27] = system: OVCAR-3 ovarian
[28] = system: HOP-62 NSCLC
[29] = system: MOLT-4 leukemia
[30] = system: LXFL 529 NSCLC
[31] = system: OVCAR-5 ovarian
[32] = system: DMS 114 small cell lung
[33] = system: RXF 393 renal
[34] = system: COLO 205 colon
[35] = system: 786-0 renal
[36] = system: HL-60(TB) leukemia
[37] = system: SN12C renal
[38] = system: NCI-H226 lung
[39] = system: RXF-631 renal
[40] = system: OVCAR-4 ovarian
[41] = system: CAKI-1 renal
[42] = system: ACHN renal
[43] = system: NCI-H522 lung
[44] = system: HCC-2998 colon
[45] = system: LOX IMVI melanoma
[46] = system: IGROV1 ovarian
[47] = system: SR leukemia
[48] = system: MALME-3M melanoma
[49] = system: NCI-H460 lung
[50] = system: SF-295 CNS
[51] = system: DMS 273 small cell lung
[52] = system: SNB-19 CNS
[53] = system: SNB-78 CNS
[54] = system: HCT-15 colon

## CC1(C)CCCC2(C)[C@@H]1CC[C@@]13CC(=O)[C@@](C)(CC[C@@H]21)C3 (some centres undefined)
[1]
  TGI: > 100 µM
[2]
  TGI: > 100 µM
[3]
  TGI: > 100 µM
[4]
  TGI: > 100 µM
[5]
  TGI: > 100 µM
[6]
  TGI: > 100 µM
[7]
  TGI: > 100 µM
[8]
  TGI: > 100 µM
[9]
  TGI: > 100 µM
[10]
  TGI: 97.3 µM
[11]
  TGI: > 100 µM
[12]
  TGI: > 100 µM
[13]
  TGI: > 100 µM
[14]
  TGI: > 100 µM
[15]
  TGI: 89.6 µM
[16]
  TGI: > 100 µM
[17]
  TGI: > 100 µM
[18]
  TGI: > 100 µM
[19]
  TGI: > 100 µM
[20]
  TGI: 76.3 µM
[21]
  TGI: > 100 µM
[22]
  TGI: > 100 µM
[23]
  TGI: > 100 µM
[24]
  TGI: > 100 µM
[25]
  TGI: > 100 µM
[26]
  TGI: > 100 µM
[27]
  TGI: > 100 µM
[28]
  TGI: > 100 µM
[29]
  TGI: > 100 µM
[30]
  TGI: > 100 µM
[31]
  TGI: > 100 µM
[32]
  TGI: > 100 µM
[33]
  TGI: 62.8 µM
[34]
  TGI: > 100 µM
[35]
  TGI: > 100 µM
[36]
  TGI: > 100 µM
[37]
  TGI: > 100 µM
[38]
  TGI: > 100 µM
[39]
  TGI: > 100 µM
[40]
  TGI: > 100 µM
[41]
  TGI: > 100 µM
[42]
  TGI: > 100 µM
[43]
  TGI: 82.5 µM
[44]
  TGI: > 100 µM
[45]
  TGI: > 100 µM
[46]
  TGI: > 100 µM
[47]
  TGI: > 100 µM
[48]
  TGI: > 100 µM
[49]
  TGI: > 100 µM
[50]
  TGI: > 100 µM
[51]
  TGI: > 100 µM
[52]
  TGI: > 100 µM
[53]
  TGI: > 100 µM
[54]
  TGI: > 100 µM
